Assay results as given in paper PMC11555231 (Nature Communications, 2024).
Bridge positions count the residues as written; N and C are the ends. Square brackets hold non-standard residues; d marks the D form. Peptide text beside a SMILES is read from it.

Target: T1, hPADI4 (Homo sapiens, UniProt Q9UM07)
T1 construct: PADI4 (residues 1–663); Avi-Tag (unbiotinylated); made in house; host or cells: E. coli BL21(DE3) without BirA
Assay: COLDER assay, inhibition of PADI4 at 10 mM CaCl2 (substrate BAEE)
Format: biochemical
Settings: COLDER, 10 mM CaCl2, peptide 10–0.0003 µM
Procedure: PADI4 activity was assessed using the COLDER assay[43] that measures the formation of urea-containing compounds (e.g. citrulline). The reaction was carried out in a 96-well plate with a final volume of 50 µl. His-PADI4 (50 nM) was incubated with different concentrations of peptides (100 µM to 0.3 nM) in the presence of CaCl2 (from 10 mM to 0.001 mM as specified) for 10 min. The reaction was started by the addition of 10 mM N^α-Benzoyl-L-arginine ethyl ester hydrochloride (BAEE, Merck). After 30 min, the reaction was quenched with EDTA (50 mM final concentration). For colour development, 200 µl of COLDER solution, consisting of 1 volume of solution A (80 mM diacetyl monoxime/2,3-butanedione monoxime (Merck) and 2 mM thiosemicarbazide (Acros Organics)) and 3 volumes of solution B (3 M H3PO4, 6 M H2SO4 and 2 mM NH4Fe(SO4)2) were added to each well and the mixture was heated at 95 °C for 15 min. After cooling to RT, absorbance at 540 nm was measured, and citrulline concentration was determined using a standard curve of citrulline standards. All studies were performed within the linear range of PADI4 activity, and data analysis was performed using Prism GraphPad (Dotmatics). Data are presented as the average ± standard error of the mean from at least two independent replicates.

T1 sequence (Q9UM07 whole entry, the tested form may be a part): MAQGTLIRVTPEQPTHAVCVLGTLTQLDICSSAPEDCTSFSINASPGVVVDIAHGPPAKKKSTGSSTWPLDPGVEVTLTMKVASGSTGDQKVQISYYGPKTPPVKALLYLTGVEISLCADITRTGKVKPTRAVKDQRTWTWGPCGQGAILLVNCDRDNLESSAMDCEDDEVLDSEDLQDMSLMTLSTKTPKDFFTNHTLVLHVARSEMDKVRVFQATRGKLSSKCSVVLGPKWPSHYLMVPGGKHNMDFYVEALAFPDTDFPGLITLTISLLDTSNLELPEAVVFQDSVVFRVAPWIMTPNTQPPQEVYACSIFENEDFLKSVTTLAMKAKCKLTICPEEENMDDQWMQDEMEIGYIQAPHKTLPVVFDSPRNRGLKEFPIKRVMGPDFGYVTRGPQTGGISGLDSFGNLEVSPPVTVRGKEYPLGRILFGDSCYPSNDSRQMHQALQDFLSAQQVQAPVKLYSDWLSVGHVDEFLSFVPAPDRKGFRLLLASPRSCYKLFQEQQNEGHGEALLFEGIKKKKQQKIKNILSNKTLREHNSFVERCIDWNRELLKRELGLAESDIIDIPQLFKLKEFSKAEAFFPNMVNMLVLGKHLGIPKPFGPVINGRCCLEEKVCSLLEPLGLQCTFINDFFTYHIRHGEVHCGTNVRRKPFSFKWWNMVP

PADI4 inhibition (in words): did not bind or inhibit PADI4
SMILES: N=C(N)NCCC[C@@H]1NC(=O)[C@H](CC(=O)O)NC(=O)[C@@H](Cc2ccc(O)cc2)NC(=O)CSC[C@@H](C(=O)NCC(N)=O)NC(=O)[C@H](Cc2ccc(O)cc2)NC(=O)[C@H](CCCCN)NC(=O)[C@@H]2CCCN2C(=O)[C@H](Cc2c[nH]cn2)NC(=O)[C@H](CCCNC(=N)N)NC(=O)[C@H](Cc2ccc(O)cc2)NC(=O)[C@H](Cc2c[nH]cn2)NC(=O)[C@H](Cc2c[nH]cn2)NC1=O [PADI4_3i] ({CH2CO}-[dY]DRHHYRHPKYCG-NH2; thioether N-12)
